Columns and labels:
[1] = Pharmacokinetic profile in mice after oral gavage; assay type: in vivo, mouse; conditions: mouse; fasted male Hilltop mice, 10 mg/kg oral gavage, plasma; read-out: Cmax
How it was run: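 Fasted 8-week male Hilltop mice given 10 mg/kg orally in 20% PEG400/80% 0.5% CMC + 0.25% Tween-80. EDTA plasma sampled 0-4 h, measured by LC-MS/MS (MRM, positive ion); Cmax and AUC derived non-compartmentally, values being means of three mice.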

human TGR5 receptor = molecular target: T1, human TGR5 receptor (Homo sapiens, UniProt Q8TDU6); assay: Human TGR5 cAMP production assay (hTGR5-CHO cells, DiscoveRx cAMP XS+ kit); assay type: cell-based; conditions: luminescent cAMP assay, read-out: Human TGR5 Lum. cAMP Activity (EC50)
T1 construct: host or cells: CHO-K1 (hTGR5-CHO)
T1 sequence (Q8TDU6 1-330): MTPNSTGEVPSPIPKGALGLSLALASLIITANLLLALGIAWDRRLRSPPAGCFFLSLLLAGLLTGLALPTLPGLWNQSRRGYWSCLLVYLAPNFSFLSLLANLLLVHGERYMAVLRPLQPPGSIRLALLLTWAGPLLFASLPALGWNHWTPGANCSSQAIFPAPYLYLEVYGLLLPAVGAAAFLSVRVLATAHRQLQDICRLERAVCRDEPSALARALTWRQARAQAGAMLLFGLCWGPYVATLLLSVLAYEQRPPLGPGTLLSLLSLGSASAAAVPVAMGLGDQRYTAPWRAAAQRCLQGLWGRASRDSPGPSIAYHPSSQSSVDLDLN
How it was run: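 CHO-K1 cells stably expressing hTGR5, in PBS with IBMX and cAMP antibody, treated with half-log compound dilutions for 1 h at room temperature. cAMP measured by enzyme-fragment complementation luminescence after overnight detection; EC50 values reported.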

| Compound | Cmax [1] | EC50 (human TGR5 receptor) |
| --- | --- | --- |
| N#Cc1ccc(CCNC(=O)[C@@H]2CCCN2c2cc(N3CCC(CCNC(=O)NCCS(N)(=O)=O)CC3)nc(C(F)(F)F)n2)cc1 [Compound 80, (S)-N-(4-cyanophenethyl)-1-(6-(4-(2-(3-(2-sulfamoylethyl)ureido)-ethyl)piperidin-1-yl)-2-(trifluoromethyl)pyrimidin-4-yl)pyrrolidine-2-carboxamide] | 1.2 ng/mL | < 100 nM |
| N#Cc1ccc(CCNC(=O)[C@@H]2CCCN2c2cc(N3CCC(COCC(=O)O)CC3)nc(C(F)(F)F)n2)cc1 [Compound 88, (S)-2-((1-(6-(2-((4-cyanophenethyl)carbamoyl)pyrrolidin-1-yl)-2-(trifluoromethyl)pyrimidin-4-yl)piperidin-4-yl)methoxy)acetic acid] | 630 ng/mL | 100 to 999 nM |
| N#Cc1ccc(CCNC(=O)[C@@H]2CCCN2c2cc(N3CCC(CCCC(=O)NCS(=O)(=O)O)CC3)nc(C(F)(F)F)n2)cc1 [Compound 66, (S)-(4-(1-(6-(2-((4-cyanophenethyl)carbamoyl)pyrrolidin-1-yl)-2-(trifluoromethyl)pyrimidin-4-yl)piperidin-4-yl)butanamido)-methanesulfonic acid] | 7.3 ng/mL | < 100 nM |
| N#Cc1ccc(CCNC(=O)[C@@H]2CCCN2c2cc(N3CCC(CCNC(=O)NCCS(=O)(=O)O)CC3)nc(C(F)(F)F)n2)cc1 [Compound 78, (S)-2-(3-(2-(1-(6-(2-((4-cyanophenethyl)carbamoyl)pyrrolidin-1-yl)-2-(trifluoromethyl)pyrimidin-4-yl)piperidin-4-yl)ethyl)ureido)ethanesulfonic acid] | 1.3 ng/mL | < 100 nM |
| N#Cc1ccc(CCNC(=O)[C@@H]2CCCN2c2cc(N3CCC(CCNC(=O)NCCC(=O)O)CC3)nc(C(F)(F)F)n2)cc1 [Compound 81, (S)-3-(3-(2-(1-(6-(2-((4-cyanophenethyl)carbamoyl)pyrrolidin-1-yl)-2-(trifluoromethyl)pyrimidin-4-yl)piperidin-4-yl)ethyl)ureido)-propanoic acid] | 60 ng/mL | < 100 nM |
| N#Cc1ccc(CCNC(=O)[C@@H]2CCCN2c2cc(N3CCC(CCCC(=O)NCCNc4cc(C(=O)O)ncn4)CC3)nc(C(F)(F)F)n2)cc1 [Compound 101, (S)-6-((2-(4-(1-(6-(2-((4-cyanophenethyl)carbamoyl)pyrrolidin-1-yl)-2-(trifluoromethyl)pyrimidin-4-yl)piperidin-4-yl)butanamido)ethyl)amino)-pyrimidine-4-carboxylic acid] | 0.7 ng/mL | < 100 nM |
| O=C(NCCC1CCN(c2cc(N3CCC[C@H]3C(=O)NCCc3ccc(C(F)(F)F)cc3)nc(C(F)(F)F)n2)CC1)NCCS(=O)(=O)O [Compound 86, (S)-2-(3-(2-(1-(2-(trifluoromethyl)-6-(2-((4-(trifluoromethyl)phenethyl)-carbamoyl)pyrrolidin-1-yl)pyrimidin-4-yl)piperidin-4-yl)ethyl)ureido)-ethanesulfonic acid] | 13 ng/mL | < 100 nM |
| CS(=O)(=O)NCCNC(=O)CCCC1CCN(c2cc(N3CCC[C@H]3C(=O)NCCc3ccc(C(F)(F)F)cc3)nc(C(F)(F)F)n2)CC1 [Compound 91, (S)-1-(6-(4-(4-((2-(methylsulfonamido)ethyl)amino)-4-oxobutyl)piperidin-1-yl)-2-(trifluoromethyl)pyrimidin-4-yl)-N-(4-(trifluoromethyl)phenethyl)pyrrolidine-2-carboxamide] | 10 ng/mL | < 100 nM |

The next lines start with the values.

| Cmax [1] | EC50 (human TGR5 receptor) | Compound |
| --- | --- | --- |
| 1.6 ng/mL | < 100 nM | N#Cc1ccc(CCNC(=O)[C@@H]2CCCN2c2cc(N3CCC(CCCC(=O)N[C@@H](CCCNC(=N)N)C(=O)O)CC3)nc(C(F)(F)F)n2)cc1 [Compound 72, (S)-2-(4-(1-(6-((S)-2-((4-cyanophenethyl)carbamoyl)pyrrolidin-1-yl)-2-(trifluoromethyl)pyrimidin-4-yl)piperidin-4-yl)butanamido)-5-guanidinopentanoic acid] |
| 1.1 ng/mL | < 100 nM | O=C(CCCC1CCN(c2cc(N3CCC[C@H]3C(=O)NCCc3ccc(C(F)(F)F)cc3)nc(C(F)(F)F)n2)CC1)NCCNc1ncnc2c1ncn2[C@@H]1O[C@H](CO)C(O)C1O (stereo partly drawn) [Compound 96, (2S)-1-(6-(4-(4-((2-((9-((2R,5R)-3,4-dihydroxy-5-(hydroxymethyl)-tetrahydrofuran-2-yl)-9H-purin-6-yl)amino)ethyl)amino)-4-oxobutyl)piperidin-1-yl)-2-(trifluoromethyl)-pyrimidin-4-yl)-N-(4-(trifluoromethyl)-phenethyl)-pyrrolidine-2-carboxamide] |
| 5 ng/mL | < 100 nM | CS(=O)(=O)NCCNC(=O)CCCC1CCN(c2cc(N3CCC[C@H]3C(=O)NCCc3ccc(C#N)cc3)nc(C(F)(F)F)n2)CC1 [Compound 93] |
| 15 ng/mL | < 100 nM | N#Cc1ccc(CCNC(=O)[C@@H]2CCCN2c2cc(N3CCC(CCCC(=O)NCC(N)=O)CC3)nc(C(F)(F)F)n2)cc1 [Compound 68, (S)-1-(6-(4-(4-((2-amino-2-oxoethyl)amino)-4-oxobutyl)piperidin-1-yl)-2-(trifluoromethyl)pyrimidin-4-yl)-N-(4-cyanophenethyl)pyrrolidine-2-carboxamide] |
| 233 ng/mL | < 100 nM | N#Cc1ccc(CCNC(=O)[C@@H]2CCCN2c2cc(N3CCC(CO)CC3)nc(C(F)(F)F)n2)cc1 [Compound 1, (S)—N-(4-cyanophenethyl)-1-(6-(4-(hydroxymethyl)piperidin-1-yl)-2-(trifluoromethyl)pyrimidin-4-yl)pyrrolidine-2-carboxamide] |
| 3 ng/mL | < 100 nM | N#Cc1ccc(CCNC(=O)[C@@H]2CCCN2c2cc(N3CCC(CCCC(=O)N[C@@H](CCC(=O)O)C(=O)O)CC3)nc(C(F)(F)F)n2)cc1 [Compound 76, (S)-2-(4-(1-(6-((S)-2-((4-cyanophenethyl)carbamoyl)pyrrolidin-1-yl)-2-(trifluoromethyl)pyrimidin-4-yl)piperidin-4-yl)butanamido)-pentanedioic acid] |
| 2.9 ng/mL | < 100 nM | N#Cc1ccc(CCNC(=O)[C@@H]2CCCN2c2cc(N3CCC(CCCC(=O)NCP(=O)(O)O)CC3)nc(C(F)(F)F)n2)cc1 [Compound 64, (S)-((4-(1-(6-(2-((4-cyanophenethyl)carbamoyl)pyrrolidin-1-yl)-2-(trifluoromethyl)pyrimidin-4-yl)piperidin-4-yl)butanamido)methyl)-phosphonic acid] |
